Results reported in paper PMC6748986, “Potent modulation of the CepR quorum sensing receptor and virulence in a Burkholderia cepacia complex member using non-native lactone ligands” (Scientific Reports, 2019).
Several values for one entry are separate records, joined by “and”; a condition that tells them apart may be missing. Equal values may be shown once.

Assays:
[1] = molecular target: T1, CepR (Burkholderia cenocepacia, UniProt B4EMD0); experiment: CepR antagonism in E. coli β-galactosidase reporter (Ec-reporter), competition against C8-AHL; assay type: cell-based, B. cenocepacia; conditions: for Inh% (100-Act%): Table S3, Ec-reporter
T1 sequence (B4EMD0 1-239): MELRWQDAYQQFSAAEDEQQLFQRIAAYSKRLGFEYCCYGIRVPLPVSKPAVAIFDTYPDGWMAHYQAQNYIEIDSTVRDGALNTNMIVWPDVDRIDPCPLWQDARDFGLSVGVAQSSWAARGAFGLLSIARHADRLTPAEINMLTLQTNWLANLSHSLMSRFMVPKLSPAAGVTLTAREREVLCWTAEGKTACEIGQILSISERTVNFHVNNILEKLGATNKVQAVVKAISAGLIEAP
Description: (§1) We began our study by screening the AHL library for CepR modulators using an E. coli-based two plasmid reporter system (Ec-reporter)[38]–[40]. Certain members of the Bcc harbor additional QS systems that are either AHL-based (e.g., BviI/BviR in B. vietnamiensis)[41] or diffusible signal factor (DSF)-based (B. cenocepacia)[42], and at least one member of the Bcc has multiple receptors that respond to C8-AHL (e.g., CepR and CepR2 in B. cenocepacia)[43]. Thus, we reasoned that using a CepR reporter in a heterologous background could simplify our initial analyses. We modified our previously reported E. coli-based two plasmid β-galactosidase reporter system to develop a CepR Ec-reporter (see Methods). The first plasmid, pJN105-cepR, contains CepR from B. cenocepacia under the control of the L-arabinose inducible pBAD promoter. A second plasmid contains a transcriptional fusion of lacZ to the cepI promoter region. The two plasmids were co-transformed into a QS mutant E. coli strain (JLD271 ∆sdiA) that lacks its LuxR-type receptor, SdiA. Using this reporter system, if an exogenously -added compound is able to interact with CepR, this will affect the protein’s interaction with the cepI promoter region and alter β-galactosidase production. Enzyme production, and thereby CepR activity, is then measurable via the degradation of a colorimetric substrate for β-galactosidase. Using this new Ec-reporter, we observed robust activity of CepR in response to its native ligand C8-AHL, with an EC50 of 5 nM (Table 1).
To identify antagonists of CepR, we screened the AHL library (at 100 μM) in competition against the native ligand C8-AHL (at approximately twice its EC50 value, 0.01 μM) in the Ec-reporter. […] The active compounds were subjected to dose-response analyses in the Ec-reporter to obtain IC50 values and assess their relative potencies (Table 2; see Table S3 for complete screening data and Fig. S3 for dose-response curves). One general trend that we noted at the outset was the majority of the antagonists had acyl tails of similar or shorter overall length than CepR’s native ligand, C8-AHL. From this set, the strongest antagonists could be divided into two classes: (i) “short alkyl tail” AHLs or analogs thereof, and (ii) phenylacetanoyl HLs (PHLs). The discovery that the latter compounds were CepR antagonists was perhaps not surprising, as we have found substituted PHLs to strongly antagonize the majority of the LuxR-type receptors studied in our laboratory to date[22],[24],[29],[45],[46].
(§2) E. coli β-galactosidase reporter assays (derived from ref.[63]) and reagents used to obtain primary screening and dose-response data were performed as previously described[22],[60],[64], with the following modifications: E. coli JLD271 (∆sdiA) was co-transformed iteratively with pSC11-cepI and pJN105-cepR via electroporation. A single colony was used to start overnight cultures in LB medium + ampicillin (100 μg/mL) + gentamicin (15 μg/mL). A 1:10 dilution of overnight culture was grown in fresh medium to OD600 = 0.25. A sterile solution of L-arabinose in water (27 mM final concentration) was added to induce protein expression, after which cells were plated in 96-well plates containing varying concentrations of compound (200 μL total volume).
(§3) Cells were grown for 4 h, OD600 was read, 50 μL aliquots from each well were permeabilized in 200 μL Z Buffer, and then 150 μL of this mixture used to measure the cleavage of 25 μL of 4 mg/mL CPRG in phosphate buffered saline (PBS) at 37 °C until positive control wells developed a deep red color (~30 min). For all agonism assays, synthetic compound (100 μM) was screened alongside and compared to the native ligand, C8-AHL (100 μM). For all primary and dose-response antagonism assays, the concentration of native ligand utilized was 10 nM (approximately equal to twice its EC50 value). […] At least 3 separate trials were performed using unique cultures on separate days.

[2] = molecular target: T1, CepR; experiment: CepR agonism in E. coli β-galactosidase reporter (Ec-reporter) JLD271 [pJN105-cepR + pSC11-cepI]; assay type: cell-based, B. cenocepacia; conditions: for Act%: Table S2, Ec-reporter; for EC50: agonism dose-response; for Maximal Activation (%): activity for 100 μM C8-AHL set to 100%, error ±10%
Description: as §1
We used the CepR Ec-reporter to perform a primary agonism screen at a single compound concentration (100 μM, or its solubility limit, indicated in Table S1). Thirty-one compounds displaying ≥70% agonistic activity in CepR (relative to C8-AHL) were identified and subjected to dose-response analyses using the Ec-reporter (Table I; see Table S2 for complete screening data and Fig. S3 for dose-response curves).
as §2, §3

[3] = screening conc. 100 μM, against 10 nM C8-AHL

Structure (SMILES): Nc1ccc(CC(=O)N[C@H]2CCOC2=O)cc1 [Compound C21]
- Inh% (100-Act%) [1, 3]: -20%
- Act% ([2]; screening conc. 100 μM): 21%

Structure (SMILES): COc1ccc(OCC(=O)N[C@H]2CCOC2=O)cc1 [Compound E17]
- Inh% (100-Act%) [1, 3]: 0.0%
- Act% ([2]; screening conc. 100 μM): 50%

Structure (SMILES): CCCCCC(=O)CC(=O)N[C@@H]1CCOC1=O [D-3’O-C8-AHL]
- Inh% (100-Act%) [1, 3]: -40%
- CepR agonism in words ([2]; Ec-reporter): inactive
- EC50 ([2]; Ec-reporter): ≥ 27000 nM
- Maximal Activation (%) ([2]; Ec-reporter): 85%
- Act% ([2]; screening conc. 100 μM): 85%

Structure (SMILES): CCCCCCCCCC(=O)N[C@H]1CCOC1=O [Compound C10-AHL, decanoyl L-homoserine lactone, reference compound]
- Inh% (100-Act%) [1, 3]: -30%
- EC50 ([2]; Ec-reporter): 109 nM and 110 nM
- Maximal Activation (%) ([2]; Ec-reporter): 87%
- Act% ([2]; screening conc. 100 μM): 87%

Structure (SMILES): CCCCCCCCOc1ccc(C(=O)N[C@H]2CCOC2=O)cc1 [Compound Q9]
- Inh% (100-Act%) [1, 3]: -20%
- Act% ([2]; screening conc. 100 μM): 62%

Structure (SMILES): O=C(Cc1ccc(Br)cc1)N[C@@H]1CCOC1=O [Compound B4]
- Inh% (100-Act%) [1, 3]: 0.0%
- Act% ([2]; screening conc. 100 μM): -0.5%

Structure (SMILES): O=C(COc1ccc(I)cc1)N[C@H]1CCOC1=O [Compound E22]
- Inh% (100-Act%) [1, 3]: -30%
- Act% ([2]; screening conc. 100 μM): 92%

Structure (SMILES): O=C(Cc1ccccc1)N[C@H]1CCOC1=O [Compound C1]
- CepR antagonism in words ([1]; Ec-reporter): inactive
- Maximal Inhibition (%) ([1]; Ec-reporter, against 10 nM C8-AHL): 8%
- Act% ([2]; screening conc. 100 μM): 0.0%

Structure (SMILES): CSc1ccc(CC(=O)N[C@H]2CCOC2=O)cc1 [Compound E6]
- Inh% (100-Act%) [1, 3]: -10%
- Act% ([2]; screening conc. 100 μM): 3.7%

Structure (SMILES): O=C(N[C@H]1CCOC1=O)c1ccc([N+](=O)[O-])cc1 [Compound Q7]
- Inh% (100-Act%) [1, 3]: 28%
- Act% ([2]; screening conc. 100 μM): 10%

Structure (SMILES): CCCCCCCCCCCC(=O)N[C@H]1CCOC1=O [Compound C12-AHL, Dodecanoyl L-homoserine lactone, reference compound]
- Inh% (100-Act%) [1, 3]: -30%
- EC50 ([2]; Ec-reporter): 310 nM
- Maximal Activation (%) ([2]; Ec-reporter): 98%
- Act% ([2]; screening conc. 100 μM): 98%

Structure (SMILES): O=C(N[C@H]1CCOC1=O)c1ccc(N=Nc2ccccc2)cc1 [Compound D20]
- Inh% (100-Act%) ([1]; screening conc. 77 μM): 8.0%
- Act% ([2]; screening conc. 77 μM): 37%

Structure (SMILES): O=C(Cc1ccc(-c2ccccc2)cc1)NC1CCSC1=O (stereo not shown) [Compound F13]
- Inh% (100-Act%) [1, 3]: -20%
- Act% ([2]; screening conc. 100 μM): 35%

Structure (SMILES): CCCc1ccc(C(=O)CCC(=O)N[C@H]2CCOC2=O)cc1 [Compound D7]
- Inh% (100-Act%) [1, 3]: 15%
- Act% ([2]; screening conc. 100 μM): 18%

Structure (SMILES): O=C(CCc1cccs1)N[C@H]1CCOC1=O [Compound D3]
- Inh% (100-Act%) [1, 3]: -40%
- Act% ([2]; screening conc. 100 μM): 87%

Structure (SMILES): CCCCCCCCCC(=O)CC(=O)NCc1ccc(OC)cc1 [Compound F31]
- Inh% (100-Act%) [1, 3]: 21%
- Act% ([2]; screening conc. 100 μM): 7.6%

Structure (SMILES): O=C(Cc1ccc(-c2ccccc2)cc1)N[C@H]1CCOC1=O [Compound C18]
- Inh% (100-Act%) [1, 3]: -20%
- Act% ([2]; screening conc. 100 μM): 1.4%

Structure (SMILES): CCCCCCCCCC(=O)CC(=O)NCc1ccccc1F [Compound F26]
- Inh% (100-Act%) [1, 3]: 20%
- Act% ([2]; screening conc. 100 μM): -1.2%

Structure (SMILES): O=C(CC(=O)N[C@H]1CCOC1=O)Cc1cccc(Cl)c1 [Compound H23]
- Inh% (100-Act%) [1, 3]: -20%
- Act% ([2]; screening conc. 100 μM): 53%

Structure (SMILES): CCCCCCC(=O)N[C@H]1CCOC1=O [Compound C7-AHL, reference compound]
- Inh% (100-Act%) [1, 3]: -10%
- Act% ([2]; screening conc. 100 μM): 106%

Structure (SMILES): CCCCCCCCCC(=O)CC(=O)Nc1ccccc1 [Compound V-06-018, reference compound]
- Inh% (100-Act%) ([1]; screening conc. 100 μM, against 10 nM C8-AHL, listed as V-06-01 8): -20%
- Act% ([2]; screening conc. 100 μM, listed as V-06-01 8): 2.4%

Structure (SMILES): O=C(Cc1cccc([N+](=O)[O-])c1)NC1CCCC1 [Compound F18]
- CepR antagonism in words ([1]; Ec-reporter): dramatic losses in activity
- Inh% (100-Act%) [1, 3]: -20%
- Act% ([2]; screening conc. 100 μM): 1.0%

Structure (SMILES): O=C(N[C@H]1CCOC1=O)c1ccc(Br)cc1 [Compound B6]
- Inh% (100-Act%) [1, 3]: 18%
- Act% ([2]; screening conc. 100 μM): 56%

Structure (SMILES): O=C(Cc1ccccc1)N[C@H]1CCOC1=O [Control 5, reference compound]
- Inh% (100-Act%) [1, 3]: 11%
- Act% ([2]; screening conc. 100 μM, listed as Co n tro l 5): 9.8%

Structure (SMILES): O=C(N[C@H]1CCOC1=O)c1ccccc1 [Compound B8]
- Inh% (100-Act%) [1, 3]: 1.0%
- Act% ([2]; screening conc. 100 μM): 10%

Structure (SMILES): O=C(N[C@H]1CCOC1=O)c1cccc(Br)c1 [Compound Q2]
- Inh% (100-Act%) [1, 3]: -30%
- Act% ([2]; screening conc. 100 μM): 4.9%
